Where “and” joins values, the source holds several entries; their conditions need not be identical. Identical values can stand only once. Calls of active or inactive are those of the source.
Key:
[1] = target: T1, Beta-2 adrenergic receptor (Homo sapiens, UniProt P07550); experiment: Dose response for HTS for Beta-2AR agonists via FAP method from Powderset1.; format: functional
[2] = target: T1, Beta-2 adrenergic receptor; experiment: ADRB2 activation measured by internalization – cell-based, FAP fluorogen, flow cytometry, cherry pick 1, dose response (AID 588763); format: functional
Vero = experiment: viability of Vero cells under compound – cytotoxicity control for flavivirus capping enzyme inhibitors (AID 588742); format: functional; conditions: Chlorocebus sabaeus
Protein RecA = target: T2, Protein RecA (Mycobacterium tuberculosis, UniProt P9WHJ3); experiment: Fluorescence Cell-Free Homogeneous Dose Retest to Identify Inhibitors of RecA-Intein Splicing Activity. [Related pubchem assays (depositor defined):AID2097, AID2223, AID489010, AID492950]; format: functional
T2 sequence (P9WHJ3 whole entry): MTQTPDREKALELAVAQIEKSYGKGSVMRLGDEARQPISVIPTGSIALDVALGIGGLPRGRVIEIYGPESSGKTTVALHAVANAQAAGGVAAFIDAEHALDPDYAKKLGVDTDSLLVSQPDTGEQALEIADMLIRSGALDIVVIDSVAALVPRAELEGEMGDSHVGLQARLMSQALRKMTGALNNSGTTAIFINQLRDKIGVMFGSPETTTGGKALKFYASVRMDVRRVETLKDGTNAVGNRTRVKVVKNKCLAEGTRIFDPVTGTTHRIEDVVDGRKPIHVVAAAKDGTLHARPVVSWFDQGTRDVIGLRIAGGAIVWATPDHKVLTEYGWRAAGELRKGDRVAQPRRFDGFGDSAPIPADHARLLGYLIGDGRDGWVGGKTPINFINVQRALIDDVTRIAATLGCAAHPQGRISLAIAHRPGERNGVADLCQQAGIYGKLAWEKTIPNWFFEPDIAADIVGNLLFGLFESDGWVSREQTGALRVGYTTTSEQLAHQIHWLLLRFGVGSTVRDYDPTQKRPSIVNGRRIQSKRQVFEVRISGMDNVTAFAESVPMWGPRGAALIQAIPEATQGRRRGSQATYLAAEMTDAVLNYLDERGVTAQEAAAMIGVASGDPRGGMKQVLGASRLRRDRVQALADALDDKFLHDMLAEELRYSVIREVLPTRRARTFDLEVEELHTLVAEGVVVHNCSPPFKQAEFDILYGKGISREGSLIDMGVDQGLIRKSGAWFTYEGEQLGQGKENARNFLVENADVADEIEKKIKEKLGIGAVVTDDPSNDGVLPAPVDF

[3] = target: Hepatocyte nuclear factor 4-alpha (Homo sapiens, UniProt P41235); format: functional, cell-based;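 also: biochemical luminescence-based dose-response counterscreen measuring inhibition of HNF4 dimerization, run alongside a screen for blockers of ABHD5–perilipin-5 interaction; split luciferase complementation of HNF4 fusion proteins in cell lysate measuring dimerization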
Chain of Hepatocyte nuclear factor 4-alpha (P41235 whole entry, the tested form may be a part): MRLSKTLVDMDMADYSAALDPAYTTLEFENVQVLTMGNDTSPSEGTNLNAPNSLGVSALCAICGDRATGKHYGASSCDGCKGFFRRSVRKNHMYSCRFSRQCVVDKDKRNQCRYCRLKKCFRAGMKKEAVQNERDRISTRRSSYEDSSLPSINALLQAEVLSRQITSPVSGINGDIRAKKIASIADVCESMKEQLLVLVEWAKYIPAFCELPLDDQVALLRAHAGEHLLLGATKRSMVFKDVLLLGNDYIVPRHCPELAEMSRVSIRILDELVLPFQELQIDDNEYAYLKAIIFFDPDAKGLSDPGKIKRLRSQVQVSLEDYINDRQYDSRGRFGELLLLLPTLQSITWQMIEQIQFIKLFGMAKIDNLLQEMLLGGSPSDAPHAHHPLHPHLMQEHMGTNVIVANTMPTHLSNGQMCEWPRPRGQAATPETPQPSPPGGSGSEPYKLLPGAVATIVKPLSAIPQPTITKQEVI

[4] = target: T3, Replicative DNA helicase DnaB (Mycobacterium tuberculosis, UniProt P9WMR3); experiment: DnaB intein splicing inhibitors, dose response, biochemical, cell-free fluorescence (AID 449749); format: functional
T3 sequence (P9WMR3 whole entry): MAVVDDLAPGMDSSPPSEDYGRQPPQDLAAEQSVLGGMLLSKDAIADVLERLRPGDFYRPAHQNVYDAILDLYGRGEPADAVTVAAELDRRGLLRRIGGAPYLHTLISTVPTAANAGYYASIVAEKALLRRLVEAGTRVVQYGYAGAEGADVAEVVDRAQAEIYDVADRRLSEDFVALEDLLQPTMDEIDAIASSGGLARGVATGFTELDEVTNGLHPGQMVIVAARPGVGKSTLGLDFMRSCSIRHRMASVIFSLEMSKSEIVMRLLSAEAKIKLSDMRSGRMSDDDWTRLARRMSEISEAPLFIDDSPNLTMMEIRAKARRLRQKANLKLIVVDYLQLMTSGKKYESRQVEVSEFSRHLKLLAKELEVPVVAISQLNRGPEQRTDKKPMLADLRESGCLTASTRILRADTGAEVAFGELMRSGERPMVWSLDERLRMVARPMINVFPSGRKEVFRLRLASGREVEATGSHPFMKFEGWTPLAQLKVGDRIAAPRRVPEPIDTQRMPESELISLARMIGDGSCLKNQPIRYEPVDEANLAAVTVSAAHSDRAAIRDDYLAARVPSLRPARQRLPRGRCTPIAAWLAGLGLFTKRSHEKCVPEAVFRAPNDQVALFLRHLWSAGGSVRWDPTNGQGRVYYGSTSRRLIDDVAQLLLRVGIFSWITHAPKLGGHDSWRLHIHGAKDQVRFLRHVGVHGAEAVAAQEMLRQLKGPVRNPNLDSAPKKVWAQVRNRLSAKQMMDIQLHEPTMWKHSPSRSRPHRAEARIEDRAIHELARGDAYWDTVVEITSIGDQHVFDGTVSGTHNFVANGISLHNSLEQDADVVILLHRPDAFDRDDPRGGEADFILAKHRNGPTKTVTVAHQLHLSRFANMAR

Genome polyprotein = Genome polyprotein (dengue virus type 2, UniProt P29990); experiment: flavivirus cap methylation enzyme inhibition – biochemical, confirmation dose response, primary screen (AID 588689); format: functional
Beta-lactamase [5] = target: T4, Beta-lactamase (Pseudomonas aeruginosa, UniProt Q79MP6); experiment: […] counterscreen for selective VIM-2 inhibitors: dose response biochemical high throughput screening assay to identify inhibitors of IMP-1 metallo-beta-lactamase.
T4 sequence (Q79MP6 whole entry): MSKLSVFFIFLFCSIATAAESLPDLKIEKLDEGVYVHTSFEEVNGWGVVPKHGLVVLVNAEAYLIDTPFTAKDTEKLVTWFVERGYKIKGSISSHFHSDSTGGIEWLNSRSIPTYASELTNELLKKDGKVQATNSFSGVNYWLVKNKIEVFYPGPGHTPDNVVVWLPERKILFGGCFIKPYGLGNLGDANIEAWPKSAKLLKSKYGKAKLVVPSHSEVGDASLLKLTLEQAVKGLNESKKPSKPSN

Beta-lactamase [6] = target: T4, Beta-lactamase; experiment: inhibition of IMP-1 beta-lactamase activity – biochemical, epi-absorbance, selectivity assay for VIM-2 inhibitor project, dose response (AID 1920)
Beta-lactamase [7] = target: Beta-lactamase (Salmonella choleraesuis (strain SC-B67), UniProt Q5J463); experiment: Epi-absorbance-based counterscreen for selective VIM-2 inhibitors: dose response biochemical high throughput screening assay to identify inhibitors of TEM-1 serine-beta-lactamase.
Chain of Beta-lactamase (Salmonella choleraesuis (strain SC-B67), UniProt Q5J463) (Q5J463 whole entry): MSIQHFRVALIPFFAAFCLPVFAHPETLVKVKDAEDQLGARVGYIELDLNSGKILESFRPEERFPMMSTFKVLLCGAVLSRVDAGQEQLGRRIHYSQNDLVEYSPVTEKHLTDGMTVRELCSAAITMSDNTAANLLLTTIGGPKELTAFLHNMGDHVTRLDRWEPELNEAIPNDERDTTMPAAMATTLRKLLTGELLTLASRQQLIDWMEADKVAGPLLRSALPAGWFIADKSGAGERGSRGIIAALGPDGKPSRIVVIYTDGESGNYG

[8] = target: T5, DNA repair and recombination protein RAD54-like (Homo sapiens, UniProt Q92698); experiment: RAD54 Holliday junction migration blockers – biochemical, fluorescence, cherry-picked samples, dose series, confirmation (AID 651657); format: functional
T5 sequence (Q92698 whole entry): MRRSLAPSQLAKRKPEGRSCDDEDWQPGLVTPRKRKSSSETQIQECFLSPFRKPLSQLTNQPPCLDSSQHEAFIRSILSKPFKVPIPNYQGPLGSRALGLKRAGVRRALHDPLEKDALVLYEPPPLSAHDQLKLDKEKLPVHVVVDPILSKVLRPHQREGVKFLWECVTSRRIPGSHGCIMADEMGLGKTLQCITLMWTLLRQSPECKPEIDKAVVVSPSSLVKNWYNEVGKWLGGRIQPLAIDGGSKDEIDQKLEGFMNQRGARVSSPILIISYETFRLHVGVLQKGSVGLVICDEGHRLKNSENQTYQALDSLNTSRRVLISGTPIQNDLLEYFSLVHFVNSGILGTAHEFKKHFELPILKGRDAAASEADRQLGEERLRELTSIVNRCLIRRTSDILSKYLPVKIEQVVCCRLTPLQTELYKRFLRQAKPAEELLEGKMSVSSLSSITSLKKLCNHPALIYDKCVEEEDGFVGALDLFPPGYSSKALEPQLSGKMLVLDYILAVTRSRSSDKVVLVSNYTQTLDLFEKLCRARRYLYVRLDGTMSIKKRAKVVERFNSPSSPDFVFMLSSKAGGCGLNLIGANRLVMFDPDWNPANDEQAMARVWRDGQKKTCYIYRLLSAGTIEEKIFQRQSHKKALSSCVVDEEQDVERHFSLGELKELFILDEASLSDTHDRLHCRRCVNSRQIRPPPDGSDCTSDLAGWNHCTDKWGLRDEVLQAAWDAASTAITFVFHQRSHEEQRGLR

[9] = cytotoxicity toward MDA-MB-231 breast cancer cells – cell-based, CellTiter-Glo luminescence, cherry-pick, cytotoxicity control for RAD54 inhibitor project, dose response (AID 651692); format: functional
[10] = tested on: Streptococcus sp. 'group A'; experiment: Streptococcus pyogenes SK(-)GAS viability under kanamycin – luminescence, BacTiterGlo, confirmation, counter-screen for streptokinase expression inhibitor project, dose response (AID 1900); format: functional, organism-based
[11] = NIH3T3 cell viability loss – ATP luminescence, mouse fibroblasts, counter-screen, dose response (AID 2010); format: functional, cell-based;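 also: cells exposed to compound for about 90 hours before reading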
[12] = target: Broad substrate specificity ATP-binding cassette transporter ABCG2 (Homo sapiens, UniProt Q9UNQ0); experiment: blockers of JC-1 export by ABCG2 – Ig-MXP3 cells, flow cytometry, dose response (AID 1690); format: functional
Chain of Broad substrate specificity ATP-binding cassette transporter ABCG2 (Q9UNQ0 whole entry): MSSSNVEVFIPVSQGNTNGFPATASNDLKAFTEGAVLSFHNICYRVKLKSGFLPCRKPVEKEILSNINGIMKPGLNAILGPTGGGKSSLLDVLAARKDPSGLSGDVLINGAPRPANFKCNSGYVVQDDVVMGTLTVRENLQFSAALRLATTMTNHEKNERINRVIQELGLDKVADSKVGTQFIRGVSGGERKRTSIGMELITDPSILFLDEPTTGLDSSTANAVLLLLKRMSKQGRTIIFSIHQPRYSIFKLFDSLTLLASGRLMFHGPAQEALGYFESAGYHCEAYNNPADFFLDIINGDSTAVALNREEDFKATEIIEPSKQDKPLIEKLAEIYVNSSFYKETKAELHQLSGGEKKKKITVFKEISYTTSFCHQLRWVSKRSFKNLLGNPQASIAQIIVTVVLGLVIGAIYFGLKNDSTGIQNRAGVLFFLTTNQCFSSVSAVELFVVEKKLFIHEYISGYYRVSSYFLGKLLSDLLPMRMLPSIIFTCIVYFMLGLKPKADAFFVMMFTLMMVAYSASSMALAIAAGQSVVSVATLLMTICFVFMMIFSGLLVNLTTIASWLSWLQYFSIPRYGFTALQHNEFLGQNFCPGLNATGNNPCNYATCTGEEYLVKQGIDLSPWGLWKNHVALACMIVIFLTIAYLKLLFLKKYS

[13] = target: T6, ATP-dependent translocase ABCB1 (Homo sapiens, UniProt P08183); experiment: inhibition of P-gp mediated JC-1 efflux – Jurkat-DNR cells, flow cytometry, dose response (AID 1689); format: functional
T6 sequence (P08183 whole entry): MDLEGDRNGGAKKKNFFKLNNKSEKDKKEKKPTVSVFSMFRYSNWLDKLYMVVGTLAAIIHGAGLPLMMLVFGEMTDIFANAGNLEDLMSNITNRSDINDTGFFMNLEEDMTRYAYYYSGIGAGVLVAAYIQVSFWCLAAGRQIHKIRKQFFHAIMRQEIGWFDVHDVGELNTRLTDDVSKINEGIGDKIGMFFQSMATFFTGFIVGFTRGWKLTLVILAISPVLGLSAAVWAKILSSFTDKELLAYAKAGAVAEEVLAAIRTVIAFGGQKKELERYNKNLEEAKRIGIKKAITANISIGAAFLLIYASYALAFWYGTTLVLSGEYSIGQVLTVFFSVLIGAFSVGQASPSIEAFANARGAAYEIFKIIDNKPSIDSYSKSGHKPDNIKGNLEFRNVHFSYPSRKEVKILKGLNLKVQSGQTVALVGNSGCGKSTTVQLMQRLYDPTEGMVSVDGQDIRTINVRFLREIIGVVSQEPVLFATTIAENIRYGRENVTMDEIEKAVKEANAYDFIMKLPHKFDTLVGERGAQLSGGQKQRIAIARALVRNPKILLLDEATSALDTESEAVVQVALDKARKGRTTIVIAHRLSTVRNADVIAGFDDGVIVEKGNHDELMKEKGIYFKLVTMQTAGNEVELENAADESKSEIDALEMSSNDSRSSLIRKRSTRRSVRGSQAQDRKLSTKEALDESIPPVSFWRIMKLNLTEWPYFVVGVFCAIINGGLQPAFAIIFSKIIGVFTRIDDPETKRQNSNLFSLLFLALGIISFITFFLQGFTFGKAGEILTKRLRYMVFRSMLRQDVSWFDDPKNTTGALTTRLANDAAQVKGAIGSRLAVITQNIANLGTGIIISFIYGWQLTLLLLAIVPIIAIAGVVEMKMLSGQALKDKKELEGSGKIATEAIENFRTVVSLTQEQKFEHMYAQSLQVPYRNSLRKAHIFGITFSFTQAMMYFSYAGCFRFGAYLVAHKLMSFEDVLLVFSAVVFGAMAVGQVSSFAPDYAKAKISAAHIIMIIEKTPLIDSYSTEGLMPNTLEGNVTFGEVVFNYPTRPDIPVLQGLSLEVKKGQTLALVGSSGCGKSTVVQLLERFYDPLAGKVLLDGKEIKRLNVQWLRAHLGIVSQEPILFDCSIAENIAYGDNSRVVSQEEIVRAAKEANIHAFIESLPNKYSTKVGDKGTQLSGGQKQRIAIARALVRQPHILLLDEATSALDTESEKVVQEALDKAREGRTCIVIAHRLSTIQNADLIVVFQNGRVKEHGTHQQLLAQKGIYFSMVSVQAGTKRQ

Streptococcus = experiment: GAS UMAA2166 growth inhibition – luminescence, BacTiterGlo, counter-screen for streptokinase expression inhibitor project, dose response (AID 1915); format: functional, organism-based;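 also: potency for reduction of bacterial viability or growth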
Streptokinase A = target: T7, Streptokinase A (Streptococcus pyogenes serotype M1, UniProt P10520); experiment: viability-normalized secreted streptokinase activity reduction – plasminogen activation absorbance, OD405, dose response (AID 1914); format: functional, Streptococcus pyogenes M1 GAS;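 also: secreted streptokinase activity via plasminogen activation per viability signal from cell pellet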
T7 sequence (P10520 whole entry): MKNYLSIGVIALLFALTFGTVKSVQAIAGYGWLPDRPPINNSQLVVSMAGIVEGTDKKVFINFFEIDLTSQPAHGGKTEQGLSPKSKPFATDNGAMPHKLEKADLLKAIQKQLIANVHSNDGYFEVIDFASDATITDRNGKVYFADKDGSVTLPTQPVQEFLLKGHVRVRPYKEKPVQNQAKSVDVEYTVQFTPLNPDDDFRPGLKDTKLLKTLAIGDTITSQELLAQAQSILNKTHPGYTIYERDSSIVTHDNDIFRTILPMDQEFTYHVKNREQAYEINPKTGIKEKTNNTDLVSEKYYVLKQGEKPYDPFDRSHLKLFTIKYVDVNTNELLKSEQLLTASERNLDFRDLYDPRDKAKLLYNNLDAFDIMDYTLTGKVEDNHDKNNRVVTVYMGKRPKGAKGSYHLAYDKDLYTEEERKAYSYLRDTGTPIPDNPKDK

[14] = Trypanosoma cruzi growth suppression in host cells – NIH3T3 host cells, beta-gal luminescence, confirmation (AID 2044); format: functional, cell-based;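 also: intracellular parasites grown in NIH/3T3 mouse fibroblasts as host cells; luminescent beta-galactosidase reporter signal from transgenic T. cruzi replicating inside host cells; inhibitors lower the luminescence signal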
[15] = target: Arf-GAP with SH3 domain, ANK repeat and PH domain-containing protein 1 (Homo sapiens, UniProt Q9ULH1); format: functional;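 also: biochemical fluorescence polarization dose–response screen measuring inhibition of ASAP1; ASAP1 GAP domain stimulating GTP hydrolysis by truncated human ARF1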
Chain of Arf-GAP with SH3 domain, ANK repeat and PH domain-containing protein 1 (Q9ULH1 whole entry, the tested form may be a part): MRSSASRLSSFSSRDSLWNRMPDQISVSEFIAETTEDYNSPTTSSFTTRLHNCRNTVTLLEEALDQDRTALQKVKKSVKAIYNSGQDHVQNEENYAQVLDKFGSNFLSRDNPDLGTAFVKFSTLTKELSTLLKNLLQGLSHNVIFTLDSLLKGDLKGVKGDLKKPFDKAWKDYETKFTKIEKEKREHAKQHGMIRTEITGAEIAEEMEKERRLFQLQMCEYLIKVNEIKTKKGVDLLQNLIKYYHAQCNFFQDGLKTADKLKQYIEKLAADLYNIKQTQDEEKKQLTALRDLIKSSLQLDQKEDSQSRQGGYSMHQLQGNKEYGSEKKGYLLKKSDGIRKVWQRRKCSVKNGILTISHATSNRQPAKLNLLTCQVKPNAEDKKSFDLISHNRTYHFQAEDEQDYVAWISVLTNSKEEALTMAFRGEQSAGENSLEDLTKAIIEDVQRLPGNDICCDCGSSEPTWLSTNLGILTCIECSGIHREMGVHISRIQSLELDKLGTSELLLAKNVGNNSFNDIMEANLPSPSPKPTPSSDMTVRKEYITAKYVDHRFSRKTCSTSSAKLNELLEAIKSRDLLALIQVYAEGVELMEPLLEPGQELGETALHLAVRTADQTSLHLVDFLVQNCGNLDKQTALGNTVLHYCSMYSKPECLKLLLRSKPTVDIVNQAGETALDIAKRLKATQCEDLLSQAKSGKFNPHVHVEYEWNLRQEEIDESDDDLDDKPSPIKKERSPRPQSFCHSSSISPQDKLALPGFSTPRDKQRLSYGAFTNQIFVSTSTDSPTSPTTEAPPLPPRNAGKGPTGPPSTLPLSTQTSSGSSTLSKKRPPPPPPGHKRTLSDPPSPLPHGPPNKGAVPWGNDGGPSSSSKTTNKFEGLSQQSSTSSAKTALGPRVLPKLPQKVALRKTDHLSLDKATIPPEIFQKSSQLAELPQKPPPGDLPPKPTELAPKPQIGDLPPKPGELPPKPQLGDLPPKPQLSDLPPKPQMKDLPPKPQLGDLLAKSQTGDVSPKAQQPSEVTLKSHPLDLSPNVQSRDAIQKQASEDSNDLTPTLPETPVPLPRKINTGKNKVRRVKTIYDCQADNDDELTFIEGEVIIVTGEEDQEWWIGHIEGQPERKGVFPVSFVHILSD

Estrogen receptor = target: T8, Estrogen receptor (Homo sapiens, UniProt P03372);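 also: potency for inhibiting coactivator peptide recruitment to the receptor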
T8 sequence (P03372 whole entry): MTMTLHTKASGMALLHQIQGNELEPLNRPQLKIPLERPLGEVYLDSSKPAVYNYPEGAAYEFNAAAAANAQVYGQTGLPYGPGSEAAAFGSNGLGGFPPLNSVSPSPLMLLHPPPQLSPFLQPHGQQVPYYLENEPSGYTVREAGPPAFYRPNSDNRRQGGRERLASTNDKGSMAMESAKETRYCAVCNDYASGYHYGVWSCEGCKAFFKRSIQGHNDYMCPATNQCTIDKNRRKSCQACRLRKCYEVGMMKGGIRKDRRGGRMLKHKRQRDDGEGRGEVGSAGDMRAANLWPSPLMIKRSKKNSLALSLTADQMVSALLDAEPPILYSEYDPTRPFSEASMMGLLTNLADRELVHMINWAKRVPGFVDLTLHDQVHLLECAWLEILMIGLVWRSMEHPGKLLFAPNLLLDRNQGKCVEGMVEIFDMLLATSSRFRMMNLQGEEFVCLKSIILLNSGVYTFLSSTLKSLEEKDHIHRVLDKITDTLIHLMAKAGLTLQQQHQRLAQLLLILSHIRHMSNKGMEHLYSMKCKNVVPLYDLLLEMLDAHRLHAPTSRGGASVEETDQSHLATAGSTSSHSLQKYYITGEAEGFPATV

[16] = viability loss in Vero cells – cell-based, purified and synthesized samples, set 8, cytotoxicity control for M. tuberculosis inhibitor project (AID 602431); format: functional; conditions: Mycobacterium tuberculosis
[17] = target: T6, ATP-dependent translocase ABCB1; experiment: P-gp JC-1 efflux blockade concentration-response – Jurkat-DNR cells, flow cytometry, set 2, dose response (AID 504569); format: functional; conditions: read-out: EC50_MICROM_;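 also: potency of pump inhibitors that raise cellular JC-1 green fluorescence up to the nicardipine level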
[18] = target: T6, ATP-dependent translocase ABCB1; experiment: inhibition of BCRP-mediated JC-1 efflux – Ig-MXP3 cells, flow cytometry, set 2, dose response (AID 504566); format: functional; conditions: read-out: EC50_MICROM_;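 also: flow cytometry median green fluorescence of retained JC-1 dye; potency of efflux pump inhibition measured as rising substrate retention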
[19] = target: Eukaryotic translation initiation factor 4E (Mus musculus, UniProt P63073); experiment: blockers of eIF4G binding by eIF4E – biochemical, TR-FRET, dose response (AID 855); format: functional;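 also: potency for disrupting eIF4E binding to eIF4GI seen as loss of FRET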
Chain of Eukaryotic translation initiation factor 4E (P63073 whole entry): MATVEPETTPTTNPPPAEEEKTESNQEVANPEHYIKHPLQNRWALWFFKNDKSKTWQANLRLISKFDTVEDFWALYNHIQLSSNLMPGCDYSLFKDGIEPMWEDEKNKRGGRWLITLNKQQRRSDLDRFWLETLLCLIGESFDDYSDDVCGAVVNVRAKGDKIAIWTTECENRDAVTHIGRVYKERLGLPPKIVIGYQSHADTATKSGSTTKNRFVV

[20] = Counterscreen for […] of the human trace amine associated receptor 1 (TAAR1): Fluorescence-based cell-based high throughput dose response assay to identify nonselective Ga16 agonists.; format: functional
[21] = Counterscreen for antagonists of the human trace amine associated receptor 1 (hTAAR1): Fluorescence-based cell-based high throughput dose response assay to identify nonselective Ga16 antagonists.; format: functional

T1 sequence (P07550 whole entry): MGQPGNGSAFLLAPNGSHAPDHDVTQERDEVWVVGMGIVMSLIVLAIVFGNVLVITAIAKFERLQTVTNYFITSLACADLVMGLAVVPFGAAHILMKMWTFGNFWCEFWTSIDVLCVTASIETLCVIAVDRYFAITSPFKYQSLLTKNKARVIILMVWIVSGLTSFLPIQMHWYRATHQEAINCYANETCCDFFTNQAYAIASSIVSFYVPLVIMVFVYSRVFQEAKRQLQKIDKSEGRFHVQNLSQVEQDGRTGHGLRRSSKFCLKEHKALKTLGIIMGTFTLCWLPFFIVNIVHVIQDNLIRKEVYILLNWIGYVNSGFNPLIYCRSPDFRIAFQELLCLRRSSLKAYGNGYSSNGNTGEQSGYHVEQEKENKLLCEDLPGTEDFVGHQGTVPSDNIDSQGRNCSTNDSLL

CN(CC(=O)N1CCN(c2ccccn2)CC1)S(=O)(=O)c1ccc(Br)cc1
EC50 [1]: 0.0191 µM (active) | EC50 [2]: 82.8 nM (active) and 35.6 nM (active)

CC(=O)Oc1c(Br)cc(N(C(C)=O)S(=O)(=O)c2ccccc2)c2ccccc12
CC50 (Vero): 39.8 µM (active) | EC50 (Protein RecA): 2.81 µM (active) | IC50 [3]: 6.11 µM (active) | AC50 [4]: 3.76 µM (active) | IC50 (Genome polyprotein): 49.8 µM (active)

O=C(CSc1nnc(NC(=O)c2ccccc2)s1)NCc1ccco1
IC50 (Beta-lactamase [5]): > 59.6 µM (inactive) | IC50 (Beta-lactamase [6]): > 59.6 µM (inactive) | IC50 (Beta-lactamase [7]): > 59.6 µM (inactive)

CCOC(=O)N1CCN(S(=O)(=O)c2ccc(C(=O)Nc3sc4c(c3C(=O)OC)CCN(C)C4)cc2)CC1
AC50 [8]: 16.8 µM (active) | AC50 [9]: 17.1 µM (active)

COc1ccc(-c2nn(-c3ccccc3)cc2/C=C/C(=O)N2CCN(c3ccccn3)CC2)cc1
EC50 [10]: 3.86 µM (active) | EC50 [11]: > 60 µM (not active) | EC50 [12]: 0.41 µM (active) | EC50 [13]: 1.64 µM (active) | EC50 (Streptococcus): 39.3 µM (active) | EC50 (Streptokinase A): > 150 µM (not active) | EC50 [14]: 2.34 µM (active)

COc1ccc2c(c1)CC/C(=C\c1ccc(OC)c(Cn3nc(C)cc3C)c1)C2=O
IC50 [15]: 26.8 µM (inactive) | IC50 (Estrogen receptor): > 50 µM (not active)

O=C(c1ccc(CNc2c(N3CCCC3)c(=O)c2=O)cc1)N1CCC(c2ccccc2)CC1
CC50 [16]: > 100 µM (inconclusive)

COc1ccc(-c2cc3nc(C)cc(N4CCN(C(=O)c5cccnc5)CC4)n3n2)cc1
EC50 [17]: 19 µM (inactive) | EC50 [18]: 10.7 µM (active)

Cc1ccc(-n2c(C)cc(/C=N/Nc3ccc([N+](=O)[O-])cn3)c2C)cc1
IC50 [19]: > 64 µM (inactive) | EC50 [20]: > 29.9 µM (inactive) | IC50 [21]: > 29.9 µM (inactive)

Reference: ChEMBL document CHEMBL1201862, “PubChem BioAssay data set” (2004)
